In this assay the target is SMYD3 (Homo sapiens (Human), UniProt Q9H7B4). Description: SMYD3 biochemical assay (SPA, 3H-SAM methylation of MEKK2 protein substrate). The following applies: read-out: SMYD3 Biochem IC50 (μM)*. A digest of the protocol:
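Methylation of N-terminally GST-tagged MEKK2 by untagged full-length human SMYD3, using 3H-SAM, in pH 8.0 Tris buffer with TCEP, BSG and Tween 20; enzyme and compound sat 30 min at room temperature before substrate addition. Stopped with 100 uM (final) cold SAM; incorporation read by scintillation proximity as dpm/cpm.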
Turning to `NCCCC(=O)N1CCC(NC(=O)c2cc(C3CC3)on2)C(C(F)(F)F)C1` (stereo not shown) [compound 356, N-(1-(4-aminobutanoyl)-3-(trifluoromethyl)piperidin-4-yl)-5-cyclopropylisoxazole-3-carboxamide], the 50% inhibitory concentration (IC50) (commonly the concentration at which inhibition is half-maximal) came to 1.21 µM. The figure for `C[C@@H]1CC(NC(=O)c2cc(C3CC3)on2)CCN1C(=O)[C@@H](CN)Cc1ccc(O)cc1` (stereo partly drawn) [compound 357, N-((2R)-1-((R)-3-amino-2-(4-hydroxybenzyl)propanoyl)-2-methylpiperidin-4-yl)-5-cyclopropylisoxazole-3-carboxamide] is 1.17 µM. For `C[C@H](C(=O)N1CC[C@@H](NC(=O)c2cc(C3CC3)on2)C[C@@H]1C)C1CCNCC1` [compound 358, 5-cyclopropyl-N-((2S,4R)-2-methyl-1-((S)-2-(piperidin-4-yl)propanoyl)piperidin-4-yl)isoxazole-3-carboxamide] the value was 3.4 µM; for `C[C@@H](C(=O)N1CC[C@@H](NC(=O)c2cc(C3CC3)on2)C[C@@H]1C)C1CCNCC1` [compound 359, 5-cyclopropyl-N-((2S,4R)-2-methyl-1-((R)-2-(piperidin-4-yl)propanoyl)piperidin-4-yl)isoxazole-3-carboxamide], 1.46 µM; for `O=C(N[C@@H]1CCN(C(=O)CC2CCNCC2)C[C@@H]1CO)c1cc(C2CC2)on1` [compound 362, 5-cyclopropyl-N-((3S,4R)-3-(hydroxymethyl)-1-(2-(piperidin-4-yl)acetyl)piperidin-4-yl)isoxazole-3-carboxamide], 2.95 µM. Consider `N[C@H]1CC[C@H](C(=O)N2CC[C@@H](NC(=O)c3cc(C4CC4)on3)C[C@@H]2CO)CC1` [compound 363, N-((2R,4R)-1-((1r,4R)-4-aminocyclohexane-1-carbonyl)-2-(hydroxymethyl)piperidin-4-yl)-5-cyclopropylisoxazole-3-carboxamide], for which the half-maximal inhibitory concentration (IC50) came out at 1.99 µM. In the case of `N[C@H]1CC[C@H](C(=O)N2CC[C@H](NC(=O)c3cc(C4CC4)on3)C[C@H]2Cc2ccccc2)CC1` [compound 364, N-((2R,4S)-1-((1r,4R)-4-aminocyclohexane-1-carbonyl)-2-benzylpiperidin-4-yl)-5-cyclopropylisoxazole-3-carboxamide], the IC50 is 4.57 µM. For `C[C@H]1C[C@H](NC(=O)c2cc(C3CC3)on2)CCN1C(=O)c1cccc(C(C)(C)N)c1` [compound 366, N-((2S,4R)-1-(3-(2-aminopropan-2-yl)benzoyl)-2-methylpiperidin-4-yl)-5-cyclopropylisoxazole-3-carboxamide] the value was 2.75 µM; for `C[C@H]1C[C@H](NC(=O)c2cc(C3CC3)on2)CCN1C(=O)c1ccc(C(C)(C)N)cc1` [compound 369, N-((2S,4R)-1-(4-(2-aminopropan-2-yl)benzoyl)-2-methylpiperidin-4-yl)-5-cyclopropylisoxazole-3-carboxamide], 5.87 µM. `C[C@@H]1C[C@@H](NC(=O)c2cc(C3CC3)on2)CCN1C(=O)c1ccc(C(C)(C)N)cc1` [compound 371, N-((2R,4S)-1-(4-(2-aminopropan-2-yl)benzoyl)-2-methylpiperidin-4-yl)-5-cyclopropylisoxazole-3-carboxamide]: the half-inhibitory concentration (IC50) worked out at 4.95 µM.

Turning to `C[C@H]1C[C@H](NC(=O)c2cc(C3CC3)on2)CCN1C(=O)C1CCCC(CN)C1` (stereo partly drawn) [compound 372, N-((2S,4R)-1-(3-(aminomethyl)cyclohexane-1-carbonyl)-2-methylpiperidin-4-yl)-5-cyclopropylisoxazole-3-carboxamide], the concentration for half-maximal inhibition (IC50) came out at 5.89 µM. As to `C[C@@H]1C[C@@H](NC(=O)c2cc(C3CC3)on2)CCN1S(=O)(=O)Cc1cccnc1` [compound 374, 5-cyclopropyl-N-((2R,4S)-2-methyl-1-((pyridin-3-ylmethyl)sulfonyl)piperidin-4-yl)isoxazole-3-carboxamide], the IC50 is over 10 µM. For `O=C(N[C@H]1CCN(C(=O)CC2CCNCC2)[C@H](Cc2ccccc2)C1)c1cc(C2CC2)on1` [compound 375, N-((2R,4S)-2-benzyl-1-(2-(piperidin-4-yl)acetyl)piperidin-4-yl)-5-cyclopropylisoxazole-3-carboxamide] the value was 1.83 µM. For `O=C(N[C@@H]1CCN(C(=O)CC2CCNCC2)[C@@H](Cc2ccccc2)C1)c1cc(C2CC2)on1` [compound 376, N-((2S,4R)-2-benzyl-1-(2-(piperidin-4-yl)acetyl)piperidin-4-yl)-5-cyclopropylisoxazole-3-carboxamide], the IC50 is 1.32 µM. For `C[C@H]1C[C@H](NC(=O)c2cc(C3CC3)on2)CCN1S(=O)(=O)c1ccccc1` [compound 379, 5-cyclopropyl-N-((2S,4R)-2-methyl-1-(phenylsulfonyl)piperidin-4-yl)isoxazole-3-carboxamide], the IC50 was determined as 3.35 µM. Turning to `C[C@H]1C[C@H](NC(=O)c2cc(C3CC3)on2)CCN1S(=O)(=O)c1cccc(C#N)c1` [compound 380, N-((2S,4R)-1-((3-cyanophenyl)sulfonyl)-2-methylpiperidin-4-yl)-5-cyclopropylisoxazole-3-carboxamide], the concentration for half-maximal inhibition (IC50) is 0.323 µM. For `N[C@H]1CC[C@H](C(=O)N2CC[C@@H](NC(=O)c3cc(C4CC4)on3)[C@H](CO)C2)CC1` [compound 382, N-((3R,4R)-1-((1r,4R)-4-aminocyclohexane-1-carbonyl)-3-(hydroxymethyl)piperidin-4-yl)-5-cyclopropylisoxazole-3-carboxamide] the value was 2.54 µM. The figure for `O=C(N[C@@H]1CCN(C(=O)CC2CCNCC2)C[C@H]1CO)c1cc(C2CC2)on1` [compound 383, 5-cyclopropyl-N-((3R,4R)-3-(hydroxymethyl)-1-(2-(piperidin-4-yl)acetyl)piperidin-4-yl)isoxazole-3-carboxamide] is 3.02 µM; for `N[C@H]1CC[C@H](C(=O)N2CC[C@@H](NC(=O)c3cc(C4CC4)on3)C[C@H]2CO)CC1` [compound 384, N-((2S,4R)-1-((1r,4S)-4-aminocyclohexane-1-carbonyl)-2-(hydroxymethyl)piperidin-4-yl)-5-cyclopropylisoxazole-3-carboxamide] it is 4.04 µM. Turning to `C[C@@H]1CN(S(=O)(=O)CCCN)CC[C@H]1NC(=O)c1cc(C2CC2)on1` [compound 388, N-((3R,4R)-1-((3-aminopropyl)sulfonyl)-3-methylpiperidin-4-yl)-5-cyclopropylisoxazole-3-carboxamide], the IC50 turned out to be 0.462 µM. The figure for `N[C@H]1CC[C@H](C(=O)N2CC[C@@H](NC(=O)c3cc(C4CC4)on3)C[C@@H]2Cc2ccccc2)CC1` [compound 389, N-((2S,4R)-1-((1r,4S)-4-aminocyclohexane-1-carbonyl)-2-benzylpiperidin-4-yl)-5-cyclopropylisoxazole-3-carboxamide] is over 10 µM. For the compound `C[C@@H]1C[C@@H](NC(=O)c2cc(C3CC3)on2)CCN1C(=O)c1cccc(C(C)(C)N)c1` [compound 392, N-((2R,4S)-1-(3-(2-aminopropan-2-yl)benzoyl)-2-methylpiperidin-4-yl)-5-cyclopropylisoxazole-3-carboxamide], the IC50 is over 10 µM. For `COCC(C)S(=O)(=O)N1CC[C@H](NC(=O)c2cc(C3CC3)on2)C[C@@H]1C` (stereo partly drawn) [compound 393, 5-cyclopropyl-N-((2S,4S)-1-((1-methoxypropan-2-yl)sulfonyl)-2-methylpiperidin-4-yl)isoxazole-3-carboxamide] the value was 3.16 µM; for `CC(C)OCCS(=O)(=O)N1CC[C@@H](NC(=O)c2cc(C3CC3)on2)C[C@@H]1C` [compound 394, 5-cyclopropyl-N-((2S,4R)-1-((2-isopropoxyethyl)sulfonyl)-2-methylpiperidin-4-yl)isoxazole-3-carboxamide], over 10 µM; for `O=C(N[C@@H]1CCN(S(=O)(=O)CCN2CCCC2)[C@@H](Cc2ccccc2)C1)c1cc(C2CC2)on1` [compound 406, N-((2S,4R)-2-benzyl-1-((2-(pyrrolidin-1-yl)ethyl)sulfonyl)piperidin-4-yl)-5-cyclopropylisoxazole-3-carboxamide], 3.41 µM. In the case of `O=C(N[C@H]1CCN(S(=O)(=O)CCN2CCCC2)[C@H](Cc2ccccc2)C1)c1cc(C2CC2)on1` [compound 408, N-((2R,4S)-2-benzyl-1-((2-(pyrrolidin-1-yl)ethyl)sulfonyl)piperidin-4-yl)-5-cyclopropylisoxazole-3-carboxamide], the IC50 worked out at 1.15 µM. In the case of `O=C(N[C@@H]1CCN(S(=O)(=O)CCN2CCOCC2)[C@@H](Cc2ccccc2)C1)c1cc(C2CC2)on1` [compound 409, N-((2S,4R)-2-benzyl-1-((2-morpholinoethyl)sulfonyl)piperidin-4-yl)-5-cyclopropylisoxazole-3-carboxamide], the half-inhibitory concentration (IC50) is over 10 µM. As to `CC(C)CN(C)c1ccc(S(=O)(=O)N2CC[C@@H](NC(=O)c3cc(C4CC4)on3)C[C@@H]2C)cn1` [compound 411, 5-cyclopropyl-N-((2S,4R)-1-((6-(isobutyl(methyl)amino)pyridin-3-yl)sulfonyl)-2-methylpiperidin-4-yl)isoxazole-3-carboxamide], the IC50 was over 10 µM.

For the compound `O=C(NC1CC2CCC(C1)N2S(=O)(=O)CC1CCNCC1)c1cc(C2CC2)on1` (stereo not shown) [compound 416, 5-cyclopropyl-N-(8-((piperidin-4-ylmethyl)sulfonyl)-8-azabicyclo[3.2.1]octan-3-yl)isoxazole-3-carboxamide], the IC50 worked out at 0.164 µM. In the case of `N[C@H]1CC[C@H](C(=O)N2CC[C@H](NC(=O)c3cc(C4CC4)on3)[C@@H](CO)C2)CC1` [compound 421, N-((3S,4S)-1-((1r,4S)-4-aminocyclohexane-1-carbonyl)-3-(hydroxymethyl)piperidin-4-yl)-5-cyclopropylisoxazole-3-carboxamide], the half-maximal inhibitory concentration (IC50) is 2.51 µM. Turning to `N[C@H]1CC[C@H](C(=O)N2CC[C@H](NC(=O)c3cc(C4CC4)on3)[C@H](CO)C2)CC1` [compound 422, N-((3R,4S)-1-((1r,4R)-4-aminocyclohexane-1-carbonyl)-3-(hydroxymethyl)piperidin-4-yl)-5-cyclopropylisoxazole-3-carboxamide], the IC50 was 1.94 µM.
